This passage reports Activity and Drug uptake results from ChEMBL document CHEMBL4834485, “Designed, synthesized and biological evaluation of proteolysis targeting chimeras (PROTACs) as AR degraders for prostate cancer treatment” (Bioorg Med Chem, 2021).

The target in data set [1] is T1, Protein cereblon/Androgen receptor (Homo sapiens) (UniProt P10275+Q96SW2). The data set is described as follows: PROTAC activity at CRBN/AR in human LNCaP cells assessed as induction of AR degradation by measuring downregulation of AR protein expression measured after 24 hrs by western blot assay. It counts as cell-based. As to conditions: dose 10-30 µM.
In data set [2] the target is T1, Protein cereblon/Androgen receptor (Homo sapiens). The data set is described as follows: PROTAC activity at CRBN/AR in human LNCaP cells assessed as induction of AR degradation by measuring downregulation of AR protein expression at 30 uM measured after 24 hrs by western blot assay. It counts as cell-based. For orientation: In western blotting, separated proteins are transferred to a membrane and probed.

Data set [3] is described as follows: Drug uptake in AR-positive human LNCaP cells assessed as increase in fluorescence intensity at 10 uM incubated for 24 hrs by DAPI staining based confocal laser scanning microscopy. It is filed as ADME.
Data set [4] can be described thus: Drug uptake in AR-negative human PC-3 cells assessed as increase in fluorescence intensity at 10 uM incubated for 24 hrs by DAPI staining based confocal laser scanning microscopy. It is filed as ADME, cell-based. As to conditions: pc-3, 24 h.

Structures are written as SMILES. The source made the active and inactive calls. The rule behind the calls is not given here.

T1 sequence (P10275 whole entry, looked up): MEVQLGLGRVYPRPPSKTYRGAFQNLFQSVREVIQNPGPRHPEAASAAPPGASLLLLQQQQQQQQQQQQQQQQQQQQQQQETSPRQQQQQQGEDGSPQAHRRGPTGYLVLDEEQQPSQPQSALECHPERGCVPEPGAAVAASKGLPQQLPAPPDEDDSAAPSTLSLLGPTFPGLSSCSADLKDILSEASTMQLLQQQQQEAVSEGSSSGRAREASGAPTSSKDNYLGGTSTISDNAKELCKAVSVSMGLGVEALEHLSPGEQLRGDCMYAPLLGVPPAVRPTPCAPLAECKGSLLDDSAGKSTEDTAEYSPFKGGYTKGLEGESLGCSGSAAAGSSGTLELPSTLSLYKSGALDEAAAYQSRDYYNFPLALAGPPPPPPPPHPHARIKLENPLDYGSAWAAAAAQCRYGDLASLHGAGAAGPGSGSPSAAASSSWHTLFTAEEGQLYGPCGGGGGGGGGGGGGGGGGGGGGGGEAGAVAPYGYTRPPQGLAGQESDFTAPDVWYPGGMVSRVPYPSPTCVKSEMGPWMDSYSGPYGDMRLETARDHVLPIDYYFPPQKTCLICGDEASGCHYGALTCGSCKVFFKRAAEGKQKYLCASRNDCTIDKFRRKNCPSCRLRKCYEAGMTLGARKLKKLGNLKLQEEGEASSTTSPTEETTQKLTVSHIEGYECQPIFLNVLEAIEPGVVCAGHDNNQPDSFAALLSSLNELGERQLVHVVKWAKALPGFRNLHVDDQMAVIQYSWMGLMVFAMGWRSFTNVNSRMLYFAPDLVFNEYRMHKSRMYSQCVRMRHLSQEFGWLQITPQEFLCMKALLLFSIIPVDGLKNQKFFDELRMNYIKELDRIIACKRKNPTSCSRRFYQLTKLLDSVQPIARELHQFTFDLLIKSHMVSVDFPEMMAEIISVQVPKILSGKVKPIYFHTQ
T1 sequence (Q96SW2 whole entry, looked up): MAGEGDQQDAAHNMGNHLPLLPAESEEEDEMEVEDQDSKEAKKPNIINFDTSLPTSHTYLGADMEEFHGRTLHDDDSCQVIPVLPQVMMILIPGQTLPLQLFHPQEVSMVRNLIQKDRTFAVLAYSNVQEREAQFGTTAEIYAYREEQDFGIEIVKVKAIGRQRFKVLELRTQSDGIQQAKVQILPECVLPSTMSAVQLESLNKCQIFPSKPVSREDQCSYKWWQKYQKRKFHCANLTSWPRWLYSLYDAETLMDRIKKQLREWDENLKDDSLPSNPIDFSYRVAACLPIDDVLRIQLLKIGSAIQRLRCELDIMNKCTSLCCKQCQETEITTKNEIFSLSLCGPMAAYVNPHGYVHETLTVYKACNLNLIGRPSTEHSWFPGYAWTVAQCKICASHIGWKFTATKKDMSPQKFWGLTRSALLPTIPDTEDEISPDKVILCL

In the case of `CC1(C)C(=O)N(c2ccc(C#N)c(C(F)(F)F)c2)C(=S)N1CCCn1cc(COCCOCCOc2cccc3c2C(=O)N(C2CCC(=O)NC2=O)C3=O)nn1` (centres undefined), the Activity result in data set [1] is “Dose-Dependent Effect”. The result in data set [2] was Active.

As to `Nc1cccc2c1C(=O)N(C1CCC(=O)NC1=O)C2=O` (centres undefined) [POMALIDOMIDE], the Drug uptake result in data set [3] and in data set [4] was “Active” each time.
